Experimental data as given in US20080312162A1, “Methods and Compositions for Enzyme-Specific Activation of Carbohydrate-Conjugated Prodrugs” (THE OHIO STATE UNIVERSITY, priority 2004, published 2008).
“And” between values parts separate entries of the source, which are not always exact repeats. Identical values can stand only once. “Also recorded” adds a separate entry of the source.

Key:
Type in all cases: cell-based, human
K562 [1] = test: Beta-glucosidase inhibition assay (DMDP) in K562 cell line; details: for Cell growth relative to untreated cells: higher concentration (0.4 μM)
Description: Similar results showing preferential activation of glucose conjugates relative to galactose or lactose conjugates were obtained in other cancer cell lines. The glucose-conjugated compound is apparently cleaved by native glucosidase inside of the cancer cells resulting in release of a biologically active anti-cytostatic compound. The cleavage of glucose conjugates by an enzymatic pathway to release an active drug is shown by a beta-glucosidase inhibition assay. FIG. 5 is a graph showing the results of a beta-glucosidase inhibition assay studied in K562 cell line. Two different concentrations of prodrug were tested in this experiment. For compound 24, 17-demethoxy-17-[(2-β-glucopyranosylethyl)amino]geldanamycin], the higher concentration is 0.4 μM and the lower concentration is 0.2 μM. […] Percentages of cell growth were calculated compared to control cells in the absence of beta-glucosidase inhibitor and prodrug solution. Each bar represents the average of three experiments. […] While the higher concentration of compound 24 limits cells growth to about 20% of untreated cells, when the beta-glucosidase inhibitor DMDP is added, the high concentration of compound 24 only reduces growth to about 60% that of untreated cells.
Beta-glucosidase Inhibition assay. To verify if the cleavage of sugar moieties from compound 24 is crucial for the anticancer activity, we performed the β-glucosidase inhibition study in K562 cell line. The K562 cells were treated with β-glucosidase inhibitor 2, 5-dihydroxymethyl-3,4-dihydroxypyrrolidine (DMDP) solution (100 μM) for 10 minutes before adding carbohydrate-geldanamycin conjugates. The concentrations of glucose-GA were 0.4 μM and 0.2 μM, respectively. […] From the structures of compounds 24 and 25, the only difference between these two compounds is the sugar moiety, which is glucose in compound 24 and galactose in compound 25.
Beta-Glucosidase inhibition assay for compound 2425. […] The exponentially growing cancer cells were incubated in three different conditions (cells with different concentration of test compounds and DMDP, cells with different concentration of test compounds only, and cell with DMDP only) for 72 hours at 37° C. (5% CO2, 100% humidity). The control cells were exposed to fresh medium only. Then, the anticancer activities of compound 24, 25 were measured with MTS assay as described above. The percentages of cell growth for tested compounds vs. control cells were calculated by the absorbance at 490 nm.

HT29 = test: Anticancer activity (MTS assay) in HT29 cells
Method: (§1) The anticancer activities of six prodrug conjugates synthesized by the method were tested for anticytostatic activity by using the MTS assay to show suppression of cell growth. Four different human cell lines, including colorectal carcinoma cells (SW620, HT 29), breast cancer cells (MCF7), and leukemia cells (K562), were tested using the MTS assay. Each compound was tested at concentration 1-25,000 nM. GA also was tested for comparison. The inhibition of cell growth was calculated compared to control cells without drug treatment. For purposes of this description of in vitro cell culture testing, drug concentrations are given for the molar concentrations of the chemotherapeutic agents present in the media at the initiation of the test. Skilled artisans are aware of the various conversion factors necessary to convert media concentrations to tissue concentration targets and the dose necessary to achieve such a dose.
(§2) Cell Culture. Cell lines SW620, HT29, MCF7, and K562 were cultured in RPMI 1640 (Invitrogen, Carlsbad, Calif., USA) supplemented with 10% fetal bovine serum (FBS), 1% non-essential amino acid and Penicillin (100 u/mL) Streptomycin (100 ug/mL) in a humidified atmosphere of 5% CO2 and 95% air at 37° C. The culture mediums were changed every 2-3 days.
(§3) Anticancer activity of compound (24-29) (MTS assay). Cells (2,000-10,000) were seeded in 96 well plates in RPMI-1640 and incubated for 24 hours. The exponentially growing cancer cells were incubated with various concentrations of compounds for 72 hours at 37° C. (5% CO2, 95% humidity).

K562 [2] = test: Anticancer activity (MTS assay) in K562 cells; details: 72 hours
Method: as §1, §2, §3

MCF7 = test: Anticancer activity (MTS assay) in MCF7 cells; details: 72 hours
Method: as §1, §2, §3

SW620 = test: Anticancer activity (MTS assay) in SW620 cells
Method: as §1, §2, §3

various cancer cells = test: Anticancer activity (MTS assay), pooled statements on various cancer cells; details: no added enzyme
Method: as §1, §3

SW620, HT29 and K562 = test: Beta-galactosidase cleavage assay; details: 2 units beta-galactosidase
Method: Thus, galactose-GA and lactose-GA conjugates were exposed to beta-galactosidase and observed for enhancement of anticancer activities. […] For compounds 25-29, 1 μM concentration of prodrug compounds were used. GA (0.01 μM), compound 24 (0.1 μM) and beta-galactosidase (2 units) was used in the cell culture. Each bar in the graphs shown is the average of three experiments. Relative percentage of cell growth was calculated compared to control cells in the absence of beta-galactosidase and drug solution. Cell lines SW620, HT29 and K562 were exposed to 2 units of beta-galactosidase and then treated individually with 1 μM of compounds 25-29. At this concentration, galactose-geldanamycin conjugates alone were relatively devoid of anticancer activity.
Beta-galactosidase cleavage assay. Cells (2,000-10,000) were seeded in 96 well plates in RPMI-1640 and incubated for 24 hours. The exponentially growing cancer cells were incubated with 2 units of beta-galactosidase for 10 minutes. The same concentration solutions of various compounds (25-29) were added to each well. The control cells were exposed to fresh medium only or to beta-galactosidase alone. After incubated for 72 hours at 37° C. (5% CO2, 100% humidity), the cell growth was measured with MTS assay as described above. The percentages of cell growth of tested compounds vs. control were calculated by measuring the absorbance at 490 nm.

SMILES	IC50 (HT29; 72 hours) [nM]	IC50 (K562 [2]) [nM]	IC50 (MCF7) [nM]	IC50 (SW620; 72 hours)	other results
OCC1NC(CO)C(O)C1O (centres unmarked) [DMDP, 2,5-dihydroxymethyl-3,4-dihydroxypyrrolidine, reference compound]					Effect on cell growth (K562 [1]; DMDP alone): did not have any effect on cell growth
COC1=C2C[C@@H](C)C[C@H](OC)[C@H](O)[C@@H](C)/C=C(\C)[C@H](OC(N)=O)[C@@H](OC)/C=C\C=C(/C)C(=O)NC(=CC1=O)C2=O [GA, Geldanamycin, reference compound]					IC50 (HT29; Homo sapiens, HT-29, 72 hours): 24.5 nM; IC50 (K562 [2]; Homo sapiens): 22.1 nM; IC50 (MCF7; Homo sapiens): 6.5 nM; IC50 (SW620; Homo sapiens, SW-620, 72 hours): 6.2 nM
COC1C=CC=C(C)C(=O)NC2=CC(=O)C(NCCOC3OC(CO)C(O)C(O)C3O)=C(CC(C)CC(OC)C(O)C(C)C=C(C)C1OC(N)=O)C2=O (stereo not drawn) [compound 24, 17-demethoxy-17-[(2-β-glucopyranosylethyl)amino]geldanamycin]	105	381	754	70 nM and 70.2 nM	Decrease of activity after treatment with DMDP (K562 [1]; DMDP 100 μM): 3 fold; Effect of beta-glucosidase inhibitor DMDP on activity (K562 [1]; DMDP 100 μM, listed as glucose-GA): completely abolished; Cell growth relative to untreated cells (K562 [1]; with beta-glucosidase inhibitor DMDP (100 μM)): about 60%; Cell growth relative to untreated cells (K562 [1]; without DMDP): about 20%; Anticytostatic activity against tumor cells (various cancer cells): showed anticytostatic activity; Anticancer activity IC50 in various cancer cells (various cancer cells; various cancer cells): within the nanomolar range; IC50 (various cancer cells; various cancer cells): 70.2 to 381 nM; Effect of beta-galactosidase treatment on activity (SW620, HT29 and K562): did not affect biological activity; also recorded: relatively unaffected; Effect of beta-galactosidase treatment on activity (SW620, HT29 and K562; listed as glucose-GA): not affected
COC1C=CC=C(C)C(=O)NC2=CC(=O)C(NCCOC3OC(CO)C(O)C(O)C3O)=C(CC(C)CC(OC)C(O)C(C)C=C(C)C1OC(N)=O)C2=O (stereo not drawn) [compound 25, 17-demethoxy-17-[(2-β-galactopyranosylethyl)amino]geldanamycin]	> 14000	> 23000	> 25000		Effect of beta-glucosidase inhibitor DMDP on activity (K562 [1]; DMDP 100 μM): did not affect; also recorded: relatively unaffected
COC1C=CC=C(C)C(=O)NC2=CC(=O)C(NCCCOC3OC(CO)C(O)C(O)C3O)=C(CC(C)CC(OC)C(O)C(C)C=C(C)C1OC(N)=O)C2=O (centres unmarked) [compound 26]	> 6000	> 14000	> 12000	> 14000 nM	
COC1C=CC=C(C)C(=O)NC2=CC(=O)C(NCCCCCOC3OC(CO)C(O)C(O)C3O)=C(CC(C)CC(OC)C(O)C(C)C=C(C)C1OC(N)=O)C2=O (centres unmarked) [compound 27]	> 13000	> 19000	> 17000	> 13000 nM	
COC1C=CC=C(C)C(=O)NC2=CC(=O)C(NCCOCCOC3OC(CO)C(O)C(O)C3O)=C(CC(C)CC(OC)C(O)C(C)C=C(C)C1OC(N)=O)C2=O (stereo not drawn) [compound 28, 17-demethoxy-17-{[2-(2-β-galactopyranosylethyl)ethyl]amino}geldanamycin]	> 13000	> 15000	> 22000	> 11000 nM	
COC1C=CC=C(C)C(=O)NC2=CC(=O)C(NCCOC3OC(CO)C(OC4OC(CO)C(O)C(O)C4O)C(O)C3O)=C(CC(C)CC(OC)C(O)C(C)C=C(C)C1OC(N)=O)C2=O (stereo not drawn) [compound 29, 17-demethoxy-17-[(2-β-lactopyranosylethyl)amino]geldanamycin]	> 25000	> 25000	> 22000	> 20000 nM	
